What all share (format): cell-based
In experiment [1] the target is T1, human TLR9 (Homo sapiens, UniProt Q9NR96).
T1 construct: host or cells: HEK-Blue cells (HEK293-derived reporter line)
T1 sequence (Q9NR96 26-1032): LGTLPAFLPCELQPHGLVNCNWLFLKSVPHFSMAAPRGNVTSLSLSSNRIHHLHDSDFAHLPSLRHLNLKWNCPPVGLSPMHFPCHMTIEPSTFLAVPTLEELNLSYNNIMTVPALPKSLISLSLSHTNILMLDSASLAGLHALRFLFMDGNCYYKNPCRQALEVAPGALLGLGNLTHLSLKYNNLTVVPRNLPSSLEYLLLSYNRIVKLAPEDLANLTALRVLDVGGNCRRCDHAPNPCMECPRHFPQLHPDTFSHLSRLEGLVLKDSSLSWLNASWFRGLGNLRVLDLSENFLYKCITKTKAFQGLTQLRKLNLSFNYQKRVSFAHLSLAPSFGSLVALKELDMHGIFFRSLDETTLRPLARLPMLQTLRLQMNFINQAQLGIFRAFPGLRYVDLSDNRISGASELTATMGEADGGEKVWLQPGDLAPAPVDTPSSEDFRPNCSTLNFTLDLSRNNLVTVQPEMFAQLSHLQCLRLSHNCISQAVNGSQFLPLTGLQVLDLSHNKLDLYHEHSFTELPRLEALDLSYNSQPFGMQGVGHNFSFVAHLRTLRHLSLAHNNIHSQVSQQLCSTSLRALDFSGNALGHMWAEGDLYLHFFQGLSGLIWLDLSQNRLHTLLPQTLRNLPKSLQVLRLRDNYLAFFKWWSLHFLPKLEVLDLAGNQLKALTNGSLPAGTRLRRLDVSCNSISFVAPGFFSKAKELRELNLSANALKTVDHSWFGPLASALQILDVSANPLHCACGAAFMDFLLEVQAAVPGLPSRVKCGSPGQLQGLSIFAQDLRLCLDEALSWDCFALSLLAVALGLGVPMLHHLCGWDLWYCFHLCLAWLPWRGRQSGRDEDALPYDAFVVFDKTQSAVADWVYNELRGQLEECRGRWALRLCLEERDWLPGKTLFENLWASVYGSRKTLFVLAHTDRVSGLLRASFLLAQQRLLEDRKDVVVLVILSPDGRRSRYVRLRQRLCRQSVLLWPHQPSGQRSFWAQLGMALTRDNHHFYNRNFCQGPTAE
Put plainly: TLR9 inhibition reporter assay (HEK-Blue cells, SEAP reporter, ODN2006 stimulation). As to conditions: HEK-Blue cells overexpressing human TLR9, SEAP reporter, ODN2006 5 nM. The essentials: (§1)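 HEK-Blue cells overexpressing human TLR7, TLR8 or TLR9 (NF-κB/AP-1-driven SEAP) pre-treated 30 min at room temperature with compound (0.05 nM–50 μM), then stimulated with gardiquimod 7.5 μM (TLR7), R848 15.9 μM (TLR8) or ODN2006 5 nM (TLR9). SEAP read colorimetrically after 22 h at 37 °C; % inhibition calculated.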
On the technique in general: Reporter assays use an easily measured gene product as a stand-in for the process of interest.

The target in experiment [2] is T2, human TLR7 (Homo sapiens, UniProt Q9NYK1).
T2 construct: host or cells: HEK-Blue cells (HEK293-derived reporter line)
T2 sequence (Q9NYK1 27-1049): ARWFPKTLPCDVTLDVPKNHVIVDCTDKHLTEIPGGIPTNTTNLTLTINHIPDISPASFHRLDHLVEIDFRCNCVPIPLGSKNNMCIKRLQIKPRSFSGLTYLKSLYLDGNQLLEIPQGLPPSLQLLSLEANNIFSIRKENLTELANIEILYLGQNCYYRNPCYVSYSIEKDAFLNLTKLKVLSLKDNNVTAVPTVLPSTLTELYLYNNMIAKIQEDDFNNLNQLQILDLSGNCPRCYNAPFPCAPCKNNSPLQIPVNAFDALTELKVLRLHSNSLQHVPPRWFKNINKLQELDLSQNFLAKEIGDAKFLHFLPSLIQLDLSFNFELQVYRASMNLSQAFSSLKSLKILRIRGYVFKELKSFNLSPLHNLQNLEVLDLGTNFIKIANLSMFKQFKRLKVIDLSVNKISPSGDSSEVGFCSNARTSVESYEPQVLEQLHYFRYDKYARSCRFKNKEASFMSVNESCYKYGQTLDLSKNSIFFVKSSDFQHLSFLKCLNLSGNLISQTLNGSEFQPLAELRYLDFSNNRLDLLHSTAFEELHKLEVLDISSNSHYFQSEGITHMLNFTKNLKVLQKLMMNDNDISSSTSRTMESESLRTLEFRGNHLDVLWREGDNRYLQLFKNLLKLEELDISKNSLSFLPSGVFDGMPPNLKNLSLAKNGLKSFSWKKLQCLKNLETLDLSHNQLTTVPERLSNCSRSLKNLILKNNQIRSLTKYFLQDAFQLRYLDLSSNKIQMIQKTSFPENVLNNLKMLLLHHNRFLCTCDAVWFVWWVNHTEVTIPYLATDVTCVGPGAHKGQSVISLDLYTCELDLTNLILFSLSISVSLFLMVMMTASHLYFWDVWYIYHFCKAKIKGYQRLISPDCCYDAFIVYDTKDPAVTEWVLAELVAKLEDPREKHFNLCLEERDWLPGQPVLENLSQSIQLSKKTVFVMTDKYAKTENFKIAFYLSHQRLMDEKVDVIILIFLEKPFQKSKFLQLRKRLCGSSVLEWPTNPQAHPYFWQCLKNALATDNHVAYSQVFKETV
The experiment is described as follows: TLR7 inhibition reporter assay (HEK-Blue cells, SEAP reporter, gardiquimod stimulation). As to conditions: HEK-Blue cells overexpressing human TLR7, SEAP reporter, gardiquimod 7.5 μM. An outline of the steps:
as §1

Experiment [3] has as its target T3, human TLR8 (Homo sapiens, UniProt Q9NR97).
T3 construct: host or cells: HEK-Blue cells (HEK293-derived reporter line)
T3 sequence (Q9NR97 27-1041): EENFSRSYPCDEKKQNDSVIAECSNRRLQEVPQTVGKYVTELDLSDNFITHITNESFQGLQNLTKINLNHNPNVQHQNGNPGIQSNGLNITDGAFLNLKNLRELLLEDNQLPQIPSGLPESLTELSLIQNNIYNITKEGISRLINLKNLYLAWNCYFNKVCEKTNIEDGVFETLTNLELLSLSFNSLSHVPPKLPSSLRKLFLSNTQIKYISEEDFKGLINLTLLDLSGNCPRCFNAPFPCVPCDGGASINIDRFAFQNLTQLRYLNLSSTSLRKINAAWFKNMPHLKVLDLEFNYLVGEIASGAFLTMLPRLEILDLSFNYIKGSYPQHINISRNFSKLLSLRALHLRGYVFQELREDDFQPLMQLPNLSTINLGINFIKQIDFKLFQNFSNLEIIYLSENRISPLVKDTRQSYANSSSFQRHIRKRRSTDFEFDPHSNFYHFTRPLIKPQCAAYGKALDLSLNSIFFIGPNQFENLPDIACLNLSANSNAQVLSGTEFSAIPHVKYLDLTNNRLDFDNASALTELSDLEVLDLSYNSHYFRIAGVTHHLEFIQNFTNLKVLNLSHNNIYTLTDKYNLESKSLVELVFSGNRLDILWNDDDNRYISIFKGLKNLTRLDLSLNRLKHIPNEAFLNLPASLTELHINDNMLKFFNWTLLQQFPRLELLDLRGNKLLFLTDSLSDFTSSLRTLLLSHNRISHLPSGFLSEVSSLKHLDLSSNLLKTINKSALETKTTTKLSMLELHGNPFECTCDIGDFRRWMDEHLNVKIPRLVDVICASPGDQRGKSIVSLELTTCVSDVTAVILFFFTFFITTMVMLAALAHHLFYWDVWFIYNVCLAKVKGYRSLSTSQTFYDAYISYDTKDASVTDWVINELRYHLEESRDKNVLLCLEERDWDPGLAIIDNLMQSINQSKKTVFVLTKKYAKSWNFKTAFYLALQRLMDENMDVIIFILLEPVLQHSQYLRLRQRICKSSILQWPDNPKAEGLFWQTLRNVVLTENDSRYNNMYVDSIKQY
Put plainly: TLR8 inhibition reporter assay (HEK-Blue cells, SEAP reporter, R848 stimulation). Conditions: HEK-Blue cells overexpressing human TLR8, SEAP reporter, R848 15.9 μM. The essentials: as §1

The structures appear in SMILES notation.

Consider `CCc1c(-c2ccnc3[nH]ncc23)[nH]c2ccc(C3CCN(Cc4cnc(N)s4)CC3)cc12` [Example 931, 5-((4-(3-ethyl-2-(1H-pyrazolo[3,4-b]pyridin-4-yl)-1H-indol-5-yl)piperidin-1-yl)methyl)thiazol-2-amine], for which the IC50 in experiment [1], in experiment [2] and in experiment [3] was greater than 50000 nM each time.
Consider `CNCCN1CCC(c2ccc3[nH]c(-c4ccnc5[nH]ncc45)c(C(C)C)c3c2)C(F)C1` (stereo not drawn) [Example 678, 2-(3-fluoro-4-(3-isopropyl-2-(1H-pyrazolo[3,4-b]pyridin-4-yl)-1H-indol-5-yl)piperidin-1-yl)-N-methylethan-1-amine], for which the IC50 in experiment [1] was 1000 to 50000 nM; in experiment [2], 100 to 1000 nM; in experiment [3], less than 100 nM.
For `Cc1cc(-c2[nH]c3ccc(C4CCN(C5COC5)CC4)cc3c2C(C)C)cc2cncn12` [Example 724, 7-(3-isopropyl-5-(1-(oxetan-3-yl)piperidin-4-yl)-1H-indol-2-yl)-5-methylimidazo[1,5-a]pyridine], the IC50 in experiment [1] was in the range of 1000 to 50000 nM; in experiment [2], 100 to 1000 nM; in experiment [3], 100 to 1000 nM.
In the case of `CCc1c(-c2ccc3[nH]c(=O)oc3c2)[nH]c2ccc(C3CCNCC3)cc12` [Example 167, 6-(3-ethyl-5-(piperidin-4-yl)-1H-indol-2-yl)benzo[d]oxazol-2(3H)-one], the IC50 in experiment [1], in experiment [2] and in experiment [3] was 100 to 1000 nM throughout.
As to `CCc1c(-c2ccnc3[nH]cc(Cl)c23)[nH]c2ccc(C3CCN(C4CCN(C(C)C)CC4)CC3)cc12` [Example 842, 3-chloro-4-(3-ethyl-5-(1′-isopropyl-[1,4′-bipiperidin]-4-yl)-1H-indol-2-yl)-1H-pyrrolo[2,3-b]pyridine], the IC50 in experiment [1] is 100 to 1000 nM; in experiment [2], 100 to 1000 nM; in experiment [3] it was less than 100 nM.
For the compound `Cc1cc(-c2[nH]c3ccc(C4CCN(CCS(C)(=O)=O)CC4)cc3c2C(C)C)cc2cnnn12` [Example 795, 5-(3-isopropyl-5-(1-(2-(methylsulfonyl)ethyl)piperidin-4-yl)-1H-indol-2-yl)-7-methyl-[1,2,3]triazolo[1,5-a]pyridine], the IC50 is 1000 to 50000 nM in experiment [1], less than 100 nM in experiment [2] and less than 100 nM in experiment [3].
As for `Cc1n[nH]c2nccc(-c3[nH]c4ccc(C5CCNCC5)cc4c3C(C)C)c12` [Example 227, 4-(3-isopropyl-5-(piperidin-4-yl)-1H-indol-2-yl)-3-methyl-1H-pyrazolo[3,4-b]pyridine], the IC50 was 100 to 1000 nM in experiment [1], less than 100 nM in experiment [2] and less than 100 nM in experiment [3].
Take `CNC(=O)CN1CCC(c2ccc3[nH]c(-c4cc(C)n5cc(C)nc5c4)c(C(C)C)c3c2)CC1` [Example 352, 2-(4-(2-(2,5-dimethylimidazo[1,2-a]pyridin-7-yl)-3-isopropyl-1H-indol-5-yl)piperidin-1-yl)-N-methylacetamide]: the IC50 in experiment [1], in experiment [2] and in experiment [3] was 100 to 1000 nM throughout.
Turning to `CNC(=O)CN1CCC(c2ccc3[nH]c(-c4ccc(C)n5nc(C)nc45)c(C(C)C)c3c2)CC1` [Example 383, 2-(4-(2-(2,5-dimethyl-[1,2,4]triazolo[1,5-a]pyridin-8-yl)-3-isopropyl-1H-indol-5-yl)piperidin-1-yl)-N-methylacetamide], the IC50 was 1000 to 50000 nM in experiment [1], 1000 to 50000 nM in experiment [2] and 100 to 1000 nM in experiment [3].
On to `Cc1cc(-c2[nH]c3ccc(C4CCNCC4)cc3c2C(C)C)cc2nccn12` [Example 161, 7-(3-isopropyl-5-(piperidin-4-yl)-1H-indol-2-yl)-5-methylimidazo[1,2-a]pyridine], for which the 50% inhibitory concentration (IC50) in experiment [1] is 100 to 1000 nM; in experiment [2] it was 100 to 1000 nM; in experiment [3] it was less than 100 nM.
`CNC(=O)CN1CCC(c2ccc3[nH]c(-c4ccc5cnnn5c4)c(C(C)C)c3c2)CC1` [Example 300, 2-(4-(2-([1,2,3]triazolo[1,5-a]pyridin-6-yl)-3-isopropyl-1H-indol-5-yl)piperidin-1-yl)-N-methylacetamide]: the IC50 in experiment [1] was 1000 to 50000 nM; in experiment [2], 100 to 1000 nM; in experiment [3], 100 to 1000 nM.
Turning to `CC(C)c1c(-c2cnc3ncnn3c2)[nH]c2ccc(C3CCN(CC(=O)N(C)C)CC3)cc12` [Example 422, 2-(4-(2-([1,2,4]triazolo[1,5-a]pyrimidin-6-yl)-3-isopropyl-1H-indol-5-yl)piperidin-1-yl)-N,N-dimethylacetamide], the IC50 in experiment [1] was 1000 to 50000 nM; in experiment [2] it was less than 100 nM; in experiment [3], 100 to 1000 nM.
As for `CC(C)c1c(-c2ccnc3[nH]ncc23)[nH]c2ccc(C3CCN(C(=O)c4cn[nH]c4)CC3)cc12` [Example 610, (4-(3-isopropyl-2-(1H-pyrazolo[3,4-b]pyridin-4-yl)-1H-indol-5-yl)piperidin-1-yl)(1H-pyrazol-4-yl)methanone], the results for the IC50 in experiment [1], in experiment [2] and in experiment [3] were 1000 to 50000 nM, 100 to 1000 nM and 100 to 1000 nM, respectively.

The term IC50 denotes the concentration needed to halve the response being measured. Low values mean greater potency in that assay, high ones weaker potency in that assay.

(Values after US11739098B2 (BRISTOL-MYERS SQUIBB COMPANY, priority 2017, dated 2023).)
